Source: patent US7781483B2, “Benzopyran compound” (Nissan Chemical Industries, Ltd., priority 2004, dated 2010)
Counter-ions that a name gives are not always drawn.

tested on: Atrium; experiment: Effects on the effective refractory period (S1-S2 extrastimulus technique, anesthetized beagles under vagal nerve stimulation); type: in vivo; conditions: 0.3 mg/kg intravenously, determined from 5 min after administration, bilateral vagal nerve stimulation, basic cycle length 300 msec, [after]-[before] drug administration
Procedure: Beagles were anesthetized with pentobarbital sodium and thoracotomy was done along the median line under a respirator and the incision was made on the pericardium to expose the heart. An electrocardiogram (ECG) was recorded using bipolar electrodes attached to the surface of the right atrial free wall, right atrial auricle, and right ventricular free wall. The vagal nerves were stimulated using an electrostimulation device with Nichrome wires inserted into the vagal nerves in the neck bilaterally. The conditions for electrostimulation to the vagal nerves were set such that the RR intervals on ECG were prolonged by about 100 msec compared with those before the stimulation was started.
Atrial and ventricular effective refractory periods were determined by S1-S2 extrastimulus technique at basic cycle length of 300 msec during bilateral vagal nerve stimulation, using programmable electric stimulator. A train of 10 basic stimuli (S1) was followed by a premature extrastimulus (S2) at 2 times diastolic threshold.
For evaluation of drug effects, the atrial and ventricular effective refractory periods were determined before drug administration, then respective compound was administrated intravenously at the dose of 0.3 mg/kg, and the atrial and ventricular effective refractory periods were determined from 5 min after the administration.
The results were shown as the prolongation time on the atrial and ventricular effective refractory periods, i.e. [effective refractory period after drug administration]−[effective refractory period before drug administration] (msec).

Question: Which “Prolongation time on the effective refractory period (msec) Atrium” value (from here on “Prolongation time”) does the source give for COc1cc2c(cc1NS(C)(=O)=O)OC(C)(C)[C@H](O)[C@H]2NCCc1ccccc1 (relative stereo) [Synthesis Example 1, N-{(3R*,4S*)-3-Hydroxy-6-methoxy-2,2-dimethyl-4-[(2-phenylethyl)amino]-3,4-dihydro-2H-1-benzopyran-7-yl}methanesulfonamide] here?
Answer: 24 ms

Question: For COc1cc2c(cc1NS(C)(=O)=O)OC(C)(C)[C@H](O)[C@H]2NCCC1CCCCC1 (relative stereo) [Synthesis Example 4, N-{(3R*,4S*)-4-[(2-Cyclohexylethyl)amino]-3-hydroxy-6-methoxy-2,2-dimethyl-3,4-dihydro-2H-1-benzopyran-7-yl}methanesulfonamide], which “Prolongation time” value is on record?
Answer: 26 ms

Question: CN(c1ccc2c(c1)OC(C)(C)[C@H](O)[C@H]2NCCc1ccccc1)S(C)(=O)=O (relative stereo) [Synthesis Example 12, N-{(3R*,4S*)-3-hydroxy-2,2-dimethyl-4-[(2-phenylethyl)amino]-3,4-dihydro-2H-benzopyran-7-yl}-N-methylmethanesulfonamide hydrochloride] was tested. Which “Prolongation time” value did it give?
Answer: 28 ms

Question: Br.CC1(C)Oc2cc(NS(C)(=O)=O)c(O)cc2[C@H](NCCc2ccccc2)[C@H]1O (relative stereo) [Synthesis Example 2, N-{(3R*,4S*)-3,6-Dihydroxy-2,2-dimethyl-4-[(2-phenylethyl)amino]-3,4-dihydro-2H-1-benzopyran-7-yl}methanesulfonamide] was tested. Which “Prolongation time” value did it give?
Answer: 26 ms

Question: COc1cc2c(cc1N(C)S(C)(=O)=O)OC(C)(C)[C@H](O)[C@H]2NCCc1ccccc1 (relative stereo) [Synthesis Example 3, N-{(3R*,4S*)-3-Hydroxy-6-methoxy-2,2-dimethyl-4-[(2-phenylethyl)amino]-3,4-dihydro-2H-1-benzopyran-7-yl}-N-methylmethanesulfonamide] was tested. Which “Prolongation time” value did it give?
Answer: 20 ms

Question: For CC1(C)Oc2cc(NS(C)(=O)=O)ccc2[C@H](NCCc2ccccc2)[C@H]1O (relative stereo) [Synthesis Example 7, N-{(3R*,4S*)-3-Hydroxy-2,2-dimethyl-4-[(2-phenylethyl)amino]-3,4-dihydro-2H-1-benzopyran-7-yl}methanesulfonamide maleate], which “Prolongation time” value is on record?
Answer: 32 ms
